System: E. coli, P. aeru, S. aureus, A. nigar, Candida
Assay: Antimicrobial test (preservative effectiveness test, USP), microorganism type not specified
Format: cell-based
Conditions: for Antimicrobial activity: about pH 7.2; for Enhancement of antimicrobial activity (in words): solutions containing benzalkonium chloride, α-cyclodextrin, and EDTA-2Na, alone or in admixture
Description: Using bacteria Escherichia coli (E. coli), Pseudomonas aeruginosa (P. aeru), and Stapyrococcus aureus (S. aureus) and fungi Aspergillus nigar (A. nigar) and Candida albicans (Candida) as infectious microorganisms, a preservative effectiveness test was carried out according to the Pharmacopoeia of the United States.
++: microorganisms died within 5 days
+: microorganisms died in 6-10 days
-:microorganisms died in 11-15 days or over 15 days
Solutions were prepared in accordance with the formulation shown in Experiment 1 in a conventional manner as used in the preparation of eye drops while the amount of disodium ethylenediaminetetraacetate (EDTA-2Na) blended was in the range of 0.002 to 0.3%. The solutions were subject to the antimicrobial test of Experiment 3 and evaluated for antimicrobial activity according to the same criterion as above.
Solutions of the following formulation were prepared in a conventional manner as used in the preparation of eye drops.
The solutions were subject to the antimicrobial test of Experiment 3 and evaluated for antimicrobial activity according to the same criterion as above.
Solutions of the formulation shown in Table 7 were prepared to a total amount of 1,000 g in a conventional manner as used in the preparation of eye drops. […] The ophthalmic solutions were subject to the same tests as in Experiments 1 and 3. In the test of Experiment 3, the ophthalmic solutions were evaluated for antimicrobial activity according to the same criterion as before.

Row | Compound | Antimicrobial activity (boric acid 0%, borax 0.01%) | Antimicrobial activity (boric acid 0%, borax 0.02%) | Antimicrobial activity (boric acid 0%, borax 0.04%) | Antimicrobial activity (boric acid 0%, borax 0.06%) | Antimicrobial activity (boric acid 0%, borax 0.08%) | Antimicrobial activity (boric acid 0%, borax 0.1%) | Antimicrobial activity (boric acid 0%, borax 0.15%) | Enhancement of antimicrobial activity (in words) | Antimicrobial activity (boric acid 0.05%, borax 0%) | Antimicrobial activity (boric acid 0.1%, borax 0%) | Antimicrobial activity (boric acid 0.2%, borax 0%) | Antimicrobial activity (boric acid 0.4%, borax 0%) | Antimicrobial activity (boric acid 0.6%, borax 0%) | Antimicrobial activity (boric acid 0.8%, borax 0%) | Antimicrobial activity (boric acid 1.0%, borax 0%)
1 | O=BOB(O)OB(O)OB=O [Borax] | + (microorganisms died in 6-10 days) | + (microorganisms died in 6-10 days) | + (microorganisms died in 6-10 days) | + (microorganisms died in 6-10 days) | + (microorganisms died in 6-10 days) | + (microorganisms died in 6-10 days) | ++ (microorganisms died within 5 days) | effective for enhancing the antimicrobial activity |  |  |  |  |  |  | 
2 | OB(O)O [Boric acid] |  |  |  |  |  |  |  | effective for enhancing the antimicrobial activity | + (microorganisms died in 6-10 days) | ++ (microorganisms died within 5 days) | ++ (microorganisms died within 5 days) | ++ (microorganisms died within 5 days) | ++ (microorganisms died within 5 days) | ++ (microorganisms died within 5 days) | ++ (microorganisms died within 5 days)

Source: patent US5998488A, “Ophthalmic composition” (Lion Corporation, priority 1994, dated 1999)
